Values belong to the molecule of their own block, whether it stands above or below them.
Assay: Water uptake experiments (Dynamic Vapor Sorption, water sorption/desorption isotherms)
Type: physicochemical
Settings: for Desorptoin % Weight Change: reverse stepwise RH decrease; for Sorption % Weight Change: stepwise RH increase
Procedure: Water sorption experiments are performed on a Dynamic Vapor Sorption (DVS) apparatus (DVS-1000 manufactured by Surface Measurements Systems, Inc.). Experiments are performed at 25° C. by initially drying the material of interest (about 10 mg sample) from 30% relative humidity (RH) (ambient room condition) to about 9% RH in a stepwise fashion (10% RH step) by purging with dry nitrogen until no further weight change was observed. The samples are then exposed to a stepwise (10% RH steps) increase in RH from about 0 to about 90% RH. Each successive step is initiated when the change in weight over time at the relative humidity was less than 0.0003% ((dm/dt)/m0×100, where m is mass in mg, m0 is initial mass, and t is time in minutes). The sample is then taken through the reverse of the stepwise % RH increase. The data are collected on a computer and analyzed using SMS' proprietary MS-Excel macro interface software.

Desorptoin % Weight Change (1.3 % RH at 25° C.): −0.02695% | Sorption % Weight Change (1.3 % RH at 25° C.): −0.02695% | Desorptoin % Weight Change (9.35 % RH at 25° C.): 0.04235% | Sorption % Weight Change (9.35 % RH at 25° C.): 0.04715% | Desorptoin % Weight Change (20.25 % RH at 25° C.): 0.09715% | Sorption % Weight Change (20.25 % RH at 25° C.): 0.1058% | Desorptoin % Weight Change (29.75 % RH at 25° C.): 0.1444% | Sorption % Weight Change (29.75 % RH at 25° C.): 0.1376% | Desorptoin % Weight Change (39.55 % RH at 25° C.): 0.1866% | Sorption % Weight Change (39.55 % RH at 25° C.): 0.1809% | Desorptoin % Weight Change (49.7 % RH at 25° C.): 0.2636% | Sorption % Weight Change (49.7 % RH at 25° C.): 0.2386% | Desorptoin % Weight Change (59.5 % RH at 25° C.): 0.331% | Sorption % Weight Change (59.5 % RH at 25° C.): 0.304% | Desorptoin % Weight Change (69.1 % RH at 25° C.): 0.3983% | Sorption % Weight Change (69.1 % RH at 25° C.): 0.3945% | Desorptoin % Weight Change (78.65 % RH at 25° C.): 0.4849% | Sorption % Weight Change (78.65 % RH at 25° C.): 0.4695% | Desorptoin % Weight Change (88.5 % RH at 25° C.): 0.6446% | Sorption % Weight Change (88.5 % RH at 25° C.): 0.6446% | weight gain of dry sample (of its own weight) when equilibrated under humid air (dry sample equilibrated under 80% relative humidity (RH) air at 25° C.): less than 1% | hygroscopicity (dry sample, 80% RH air at 25° C.): essentially nonhygroscopic
SMILES: CCCCC1(CCCC)CS(=O)(=O)c2ccc(N(C)C)cc2[C@@H](c2ccc(OCc3ccc(C[N+]45CCN(CC4)CC5)cc3)cc2)[C@H]1O.[Cl-] [Form II, (4R,5R)-1-((4-(4-(3,3-dibutyl-7-(dimethylamino)-2,3,4,5-tetrahydro-4-hydroxy-1,1-dioxido-1-benzithiepin-5-yl)phenoxy)methyl)phenyl)methyl-4-aza-1-azoniabicyclo[2.2.2]octane chloride]

Desorptoin % Weight Change (0.45 % RH at 25° C.): 0.057% | Sorption % Weight Change (0.45 % RH at 25° C.): 0.057% | Desorptoin % Weight Change (9.2 % RH at 25° C.): 0.997% | Sorption % Weight Change (9.2 % RH at 25° C.): 0.9575% | Desorptoin % Weight Change (20.05 % RH at 25° C.): 2.1025% | Sorption % Weight Change (20.05 % RH at 25° C.): 2.016% | Desorptoin % Weight Change (29.75 % RH at 25° C.): 3.599% | Sorption % Weight Change (29.75 % RH at 25° C.): 3.4105% | Desorptoin % Weight Change (39.4 % RH at 25° C.): 4.743% | Sorption % Weight Change (39.4 % RH at 25° C.): 4.282% | Desorptoin % Weight Change (49.55 % RH at 25° C.): 5.321% | Sorption % Weight Change (49.55 % RH at 25° C.): 4.928% | Desorptoin % Weight Change (59.4 % RH at 25° C.): 5.726% | Sorption % Weight Change (59.4 % RH at 25° C.): 5.356% | Desorptoin % Weight Change (69.05 % RH at 25° C.): 6.054% | Sorption % Weight Change (69.05 % RH at 25° C.): 5.706% | Desorptoin % Weight Change (78.8 % RH at 25° C.): 6.357% | Sorption % Weight Change (78.8 % RH at 25° C.): 6.109% | Desorptoin % Weight Change (88.5 % RH at 25° C.): 6.734% | Sorption % Weight Change (88.5 % RH at 25° C.): 6.734%
SMILES: CCCCC1(CCCC)CS(=O)(=O)c2ccc(N(C)C)cc2[C@@H](c2ccc(OCc3ccc(C[N+]45CCN(CC4)CC5)cc3)cc2)[C@H]1O.[Cl-] [Form I, (4R,5R)-1-((4-(4-(3,3-dibutyl-7-(dimethylamino)-2,3,4,5-tetrahydro-4-hydroxy-1,1-dioxido-1-benzithiepin-5-yl)phenoxy)methyl)phenyl)methyl-4-aza-1-azoniabicyclo[2.2.2]octane chloride]

From patent US6586434B2, “Method for the preparation of tetrahydrobenzothiepines” (G.D. Searle, LLC, priority 2000, dated 2003)
